Data taken from patent US11866416B2, “Streptococcus mutans glucosyl transferase inhibitors for dental caries therapy” (UAB Research Foundation, priority 2018, dated 2024).
≈ marks a conversion by molar mass, not a printed value. Like-named read-outs stand apart in the source and are kept apart here.

Experiments:
S. mutans = assay: microbe, parasite or virus in culture; assay type: cell-based, Streptococcus mutans; conditions: Streptococcus mutans, >300 = no inhibition up to 300 μM, read-out: Growth Inhibition MIC50
Description: Cell viability of S. mutans, S. gordonii, S. sanguinis, Aggregatibacter actinomycetemcomitans and Actinomyces. […] The number of colony-forming units (CFU) per milliliter of each sample treated with selected compounds at different concentrations was enumerated after incubation for 24 h at 37° C. and compared to the values obtained from the DMSO control group. Overnight broth cultures were transferred by 1:50 dilutions into fresh THB medium and were allowed to grow until mid-exponential phase (OD470 nm 0.6) before transfer to 96-well plates containing desired concentration of the compound. After 16 h incubation, bacterial growth was measured at OD470, and normalized to the DMSO control (100%).
Cell viability of S. mutans and commensal S. gordonii and S. sanguinis. Effects of lead small molecules on cell viability were examined. The number of colony-forming units (CFU) per milliliter for each compound at different concentrations was determined after incubation for 24 h at 37° C. and compared to the values obtained from the DMSO control group.
Cell viability of S. mutans and commensal S. gordonii and S. sanguinis. […] DMSO served as a control group and provided a relative comparison for the number of colony-forming units (CFU) per milliliter for each compound at different concentrations was determined after incubation for 24 h at 37° C. The final concentration of DMSO used in the assays was 1%.

S. mutans biofilm = S. mutans biofilm formation and inhibition assay (96-well plates, crystal violet); assay type: cell-based, Streptococcus mutans; conditions: read-out: Biofilm Inhibition IC50
Description: Biofilm assays using 96-well flat-bottom polystyrene microtiter plates were performed to evaluate S. mutans biofilm formation at various conditions as described (Liu et al. (2011) Antimicrobial Agents and Chemotherapy 55, 2679; Zhang et al. (2015) International Journal of Antimicrobial Agents 46, 174), the disclosures of which are incorporated herein by reference in their entirety). Each assay was replicated three times. Compounds that inhibited biofilm formation at minimum concentration (MBIC) were determined by serial dilutions.
S. mutans biofilm formation and inhibition assays. […] Each assay was replicated three times. Minimum biofilm inhibitory concentration (MBIC) of compounds was determined by serial dilutions.
S. mutans biofilm formation and inhibition assays. Biofilm assays using 96-well flat-bottom polystyrene microtiter plates were performed to evaluate S. mutans biofilm formation at various conditions as described. Each assay was replicated […]. Compounds that inhibited 50% biofilm formation were determined by serial dilutions.
S. mutans biofilm formation and inhibition assays. A well-established protocol to study S. mutans biofilm formation in 96-well flat-bottom polystyrene microtiter plates was used, in triplicate (Mattos-Graner, R. O.; Napimoga, M. H.; Fukushima, K.; Duncan, M. J.; Smith, D. J., Comparative analysis of Gtf isozyme production and diversity in isolates of Streptococcus mutans with different biofilm growth phenotypes. Journal of clinical microbiology 2004, 42 (10), 4586-4592). The stock solutions were made up in 100% DMSO, and final concentration of DMSO used in the assays was 1%. Minimum biofilm inhibitory concentration (MBIC) of compounds was determined by serial dilutions.

[1] = Streptococcus mutans, Table 1, >500 = no inhibition up to 500 μM
[2] = Table 3, NI = no inhibition up to 400 μM

Row | MIC50 (S. mutans; Table 2) | IC50 (S. mutans biofilm; [1]) | IC50 (S. mutans biofilm; Streptococcus mutans, Table 2) | MIC50 (S. mutans; [2]) | IC50 (S. mutans biofilm; Streptococcus mutans, Table 3) | SMILES | IC50 (S. mutans biofilm; Table 2)
1 | > 300 µM | 144 µM | 144 µM | – | – | COC(=O)c1ccc(NC(=O)c2cc3cc([N+](=O)[O-])ccc3o2)cc1 [AC] | –
2 | > 300 µM | 167 µM | 167 µM | – | – | NC(=O)c1ccc(NC(=O)c2cccc3ccccc23)cc1 [BR] | –
3 | > 300 µM | 45.6 µM | 45.6 µM | – | – | NC(=O)c1ccc(NC(=O)c2cc3ccccc3s2)cc1 [Compound 3Y] | –
4 | – | – | – | 327 ± 24 µM (≈ 83.8 µg/mL) | 250 ± 16 µM | O=C(/C=C/c1ccc(O)cc1O)c1ccccc1O [SN-II-32] | –
5 | > 300 µM | 74.9 µM | 74.9 µM | – | – | COC(=O)c1ccccc1NC(=O)c1cc2ccccc2s1 [BE] | –
6 | > 300 µM | 52.8 µM | 52.8 µM | – | – | CC(C)(C)OC(=O)NCc1ccccc1NC(=O)c1cnc2ccccc2c1 [AK] | –
7 | > 300 µM | 160 µM | 160 µM | – | – | NCc1ccccc1NC(=O)c1ccc2ccccc2c1 [AH] | –
8 | – | – | – | 263 ± 14 µM (≈ 66.8 µg/mL) | 280 ± 35 µM | O=C1/C(=C/c2ccc(O)c(O)c2)Oc2ccccc21 [SN-II-118] | –
9 | > 300 µM | 89.5 µM | 89.5 µM | – | – | COC(=O)c1ccccc1NC(=O)c1ccc2ccccc2n1 [BD] | –
10 | > 300 µM | – | 36.1 µM | – | – | NC(=O)c1ccccc1NC(=O)c1ccc2ncsc2c1 [SN-I-271U] | –
11 | > 300 µM | 45.6 µM | 45.6 µM | – | – | NC(=O)c1ccccc1NC(=O)c1cc2ccccc2s1 [Compound 3B] | –
12 | 45.9 µM (≈ 16.2 µg/mL) | – | 16.6 µM | – | – | COC(=O)c1cccc(NC(=O)c2cc3cc(NC(=N)N)ccc3o2)c1 [SN-II-107] | –

Row | SMILES | MIC50 (S. mutans; Table 2) | IC50 (S. mutans biofilm; [1]) | IC50 (S. mutans biofilm; Streptococcus mutans, Table 2) | MIC50 (S. mutans; [2]) | IC50 (S. mutans biofilm; Streptococcus mutans, Table 3) | IC50 (S. mutans biofilm; Table 2)
13 | NC(=O)c1ccccc1NC(=O)c1cc2cc(N)ccc2s1 [SN-II-81F] | > 300 µM | – | – | – | – | 56.4 µM
14 | O=C(/C=C/c1ccc(O)cc1O)c1ccc(O)cc1 [SN-II-49C] | – | – | – | 782 ± 96 µM (≈ 200 µg/mL) | 77 ± 8 µM | –
